{"source": "paper PMC10303200", "about": "(ACS Central Science, 2023)", "key": {"[1]": {"molecular_target": "T1, MAA", "T1 construct": "commercial lectin mixture", "assay": "COIN-CaR-nMS with purified oligosaccharides listed beside the library glycans, 200 mM ammonium acetate, pH 6.9.", "assay_type": "binding", "conditions": "SD; read-out: Kd, purified oligosaccharides in Tables S12, S13, S18, S19"}, "[2]": {"molecular_target": "Sig7-Fc (Homo sapiens, UniProt Q9Y286)", "sequence (Q9Y286 1-345)": "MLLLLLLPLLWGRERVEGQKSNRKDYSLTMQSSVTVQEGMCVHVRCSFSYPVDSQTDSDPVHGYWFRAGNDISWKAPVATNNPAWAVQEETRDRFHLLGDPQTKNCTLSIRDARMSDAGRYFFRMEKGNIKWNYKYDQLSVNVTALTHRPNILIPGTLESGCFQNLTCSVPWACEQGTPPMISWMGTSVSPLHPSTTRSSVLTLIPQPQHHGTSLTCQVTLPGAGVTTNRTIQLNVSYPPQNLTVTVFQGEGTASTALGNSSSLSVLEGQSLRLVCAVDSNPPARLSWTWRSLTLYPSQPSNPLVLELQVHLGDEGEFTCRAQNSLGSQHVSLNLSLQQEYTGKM", "assay": "COIN-CaR-nMS with purified oligosaccharides listed beside the library glycans, 200 mM ammonium acetate, pH 6.9.", "assay_type": "binding", "parameters": "gene SIGLEC7; residues 1-345, human IgG1 Fc fusion and C-terminal His6, from CHO cells, MW 150 kDa", "conditions": "SD; read-out: Kd, purified oligosaccharides in Tables S12, S13, S18, S19"}, "[3]": {"molecular_target": "Siglec-7", "conditions": "ITC; cited from earlier work"}, "[4]": {"molecular_target": "T2, fCD22 (fragment of human Siglec 2) (Homo sapiens, UniProt P20273)", "T2 construct": "A fragment of human Siglec 2 (fCD22, residue 1–332, MW 37.4 kDa); made in house; host or cells: wild-type CHO cells", "T2 sequence (P20273 20-332)": "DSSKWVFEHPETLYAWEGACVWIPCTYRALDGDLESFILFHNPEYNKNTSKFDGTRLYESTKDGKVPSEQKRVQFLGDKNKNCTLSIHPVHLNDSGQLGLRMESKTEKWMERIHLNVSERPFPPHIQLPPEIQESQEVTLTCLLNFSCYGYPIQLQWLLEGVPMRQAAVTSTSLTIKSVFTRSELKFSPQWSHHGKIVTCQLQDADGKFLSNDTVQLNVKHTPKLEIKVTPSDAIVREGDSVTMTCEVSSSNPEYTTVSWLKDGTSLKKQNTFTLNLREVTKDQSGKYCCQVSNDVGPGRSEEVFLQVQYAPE", "assay": "direct nMS affinity measurement", "assay_type": "binding", "conditions": "individual glycan; ammonium acetate 200 mM, pH 6.9"}, "[5]": {"molecular_target": "T2, fCD22 (fragment of human Siglec 2)", "assay": "COIN-nMS affinity measurement", "assay_type": "binding"}, "[6]": {"molecular_target": "T2, fCD22 (fragment of human Siglec 2)", "conditions": "literature value; ref S3; cited from earlier work"}, "[7]": {"molecular_target": "RCA-I (Ricinus communis agglutinin) (Ricinus communis, UniProt P06750)", "assay_type": "binding", "conditions": "read-out: Kd (Native); pH 6.9"}, "[8]": {"molecular_target": "T3, GAL-7 homodimer (Homo sapiens, UniProt P47929)", "T3 construct": "made in house", "T3 sequence (P47929 whole entry)": "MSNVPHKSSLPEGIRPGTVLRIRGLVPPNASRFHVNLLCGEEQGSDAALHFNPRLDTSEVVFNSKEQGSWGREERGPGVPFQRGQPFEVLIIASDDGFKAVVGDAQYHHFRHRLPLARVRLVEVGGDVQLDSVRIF", "assay": "direct nMS affinity measurement", "assay_type": "binding", "parameters": "key: NB: No binding detected", "conditions": "glycans present as a mixture (G2, G5-G13); pH 6.9"}, "[9]": {"molecular_target": "T3, GAL-7 homodimer", "assay": "COIN-nMS affinity measurement", "assay_type": "binding", "parameters": "key: NB: No binding detected", "conditions": "glycans present as a mixture (G2, G5-G13); average of eight measurements; pH 6.9"}, "[10]": {"molecular_target": "T4, GAL-3C (Homo sapiens, UniProt P17931)", "T4 sequence (P17931 107-250)": "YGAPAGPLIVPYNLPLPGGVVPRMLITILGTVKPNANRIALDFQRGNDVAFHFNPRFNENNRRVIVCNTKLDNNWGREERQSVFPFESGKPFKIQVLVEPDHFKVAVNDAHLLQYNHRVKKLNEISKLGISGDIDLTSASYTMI", "assay": "COIN-nMS affinity measurement", "assay_type": "binding", "parameters": "human Galectin-3 (GAL-3C, residues 107–250, molecular weight (MW) 16 327 Da); key: NB: No binding detected", "conditions": "glycans present as a mixture (G2, G5-G13); average of eight measurements; pH 6.9"}, "[11]": {"molecular_target": "T4, GAL-3C", "assay": "direct nMS (ESI-MS) affinity measurement at known concentrations", "assay_type": "binding", "parameters": "human Galectin-3 (GAL-3C, residues 107–250, molecular weight (MW) 16 327 Da); key: NB: No binding detected", "conditions": "glycans present as a mixture (G2, G5-G13); pH 6.9"}}, "note": "Read-outs that look alike come from different tables or passages of the source."}
{"compound": "CC(=O)N[C@H]1[C@H]([C@H](O)[C@H](O)CO)O[C@@](O[C@H]2[C@@H](O)[C@@H](CO)O[C@@H](O[C@H]3[C@H](O)[C@@H](NC(C)=O)C(O)O[C@@H]3CO)[C@@H]2O)(C(=O)O)C[C@@H]1O", "note": "(stereo partly drawn) [G25, 3SLN, α-D-Neu5Ac-(2→3)-β-D-Gal-(1→4)-D-GlcNAc]", "values": [{"measurement": "Kd", "setting": "[1]", "result": 2.14, "unit": "µM"}, {"measurement": "Kd", "setting": "[2]", "result": 267, "unit": "µM"}]}
{"compound": "CC(=O)N[C@H]1[C@H]([C@H](O)[C@H](O)CO)O[C@@](O[C@H](CO)[C@@H](O)[C@@H]2O[C@@](O[C@H]3[C@@H](O)[C@@H](CO)O[C@@H](O[C@H]4[C@H](O)[C@@H](O)C(O)O[C@@H]4CO)[C@@H]3O)(C(=O)O)C[C@H](O)[C@H]2NC(C)=O)(C(=O)O)C[C@@H]1O", "note": "(stereo partly drawn) [GD3, α-D-Neu5Ac-(2→8)-α-D-Neu5Ac-(2→3)-β-D-Gal-(1→4)-D-Glc]", "values": [{"measurement": "Kd", "setting": "[3]", "result": 98, "unit": "µM"}]}
{"compound": "CC(=O)NC1C(O)OC(CO)C(OC2OC(CO)C(OC3OC(COC4OC(CO)C(O)C(O)C4OC4OC(CO)C(OC5OC(COC6(C(=O)O)CC(O)C(NC(C)=O)C(C(O)C(O)CO)O6)C(O)C(O)C5O)C(O)C4NC(C)=O)C(O)C(OC4OC(CO)C(O)C(O)C4OC4OC(CO)C(OC5OC(COC6(C(=O)O)CC(O)C(NC(C)=O)C(C(O)C(O)CO)O6)C(O)C(O)C5O)C(O)C4NC(C)=O)C3O)C(O)C2NC(C)=O)C1O", "note": "[Glycan G4, [α-D-Neu5Ac-(2→6)-β-D-Gal-(1→4)-β-D-GlcNAc-(1→2)-α-D-Man-(1→3)]-[α-D-Neu5Ac-(2→6)-β-D-Gal-(1→4)-β-D-GlcNAc-(1→2)-α-D-Man-(1→6)]-β-D-Man(1→4)-β-D-GlcNAc-(1→4)-D-GlcNAc]", "values": [{"measurement": "Kd", "setting": "[4]", "result": "13.1 ± 0.6", "unit": "µM"}, {"measurement": "Kd", "setting": "[5]; global fit of data sets at 30, 50, 75 µM glycan, read-out: Kd (COIN-nMS, global fit)", "result": "23.5 ± 1.4", "unit": "µM"}, {"measurement": "Kd", "setting": "[5]; glycan concentration 30 µM, pH 6.9, read-out: Kd (COIN-nMS, individual experiments)", "result": "25.4 ± 2.2", "unit": "µM"}, {"measurement": "Kd", "setting": "[5]; glycan concentration 50 µM, pH 6.9, read-out: Kd (COIN-nMS, individual experiments)", "result": "37.5 ± 0.5", "unit": "µM"}, {"measurement": "Kd", "setting": "[5]; glycan concentration 75 µM, pH 6.9, read-out: Kd (COIN-nMS, individual experiments)", "result": "23.4 ± 0.7", "unit": "µM"}, {"measurement": "Kd", "setting": "[6]", "result": "13.1 ± 0.6", "unit": "µM"}]}
{"compound": "CC(=O)N[C@H]1[C@H](O[C@H]2[C@H](O)[C@@H](NC(C)=O)C(O)O[C@@H]2CO)O[C@H](CO)[C@@H](O[C@@H]2O[C@H](CO[C@H]3O[C@H](CO)[C@@H](O)[C@H](O)[C@@H]3O[C@@H]3O[C@H](CO)[C@@H](O[C@@H]4O[C@H](CO)[C@H](O)[C@H](O)[C@H]4O)[C@H](O)[C@H]3NC(C)=O)[C@@H](O)[C@H](O[C@H]3O[C@H](CO)[C@@H](O)[C@H](O)[C@@H]3O[C@@H]3O[C@H](CO)[C@@H](O[C@@H]4O[C@H](CO)[C@H](O)[C@H](O)[C@H]4O)[C@H](O)[C@H]3NC(C)=O)[C@@H]2O)[C@@H]1O", "note": "(some centres unmarked) [HexNAc4Hex5]", "values": [{"measurement": "Kd", "setting": "[7]", "result": "1.22 ± 0.03", "unit": "µM"}]}
{"compound": "β-D-Gal(1→3)-[α-L-Fuc(1→4)]-β-D-GlcNAc(1→3)-β-D-Gal(1→4)-[α-L-Fuc(1→3)]-β-D-Glc [Glycan G11]", "values": [{"measurement": "Kd (nMS)", "setting": "[8]", "result": "NB"}, {"measurement": "Kd (COIN-nMS)", "setting": "[9]", "result": "NB and do not bind"}, {"measurement": "Kd (COIN-nMS)", "setting": "[10]", "result": "NB and do not bind"}, {"measurement": "Kd (nMS)", "setting": "[11]", "result": "NB"}]}
